Measurements reported in US20250262251A1, “THERARONSTIC APPROACH FOR INFLAMMATORY BOWEL DISEASE-ASSOCIATED SPONDYLOARTHRITIS” (Cornell University, priority 2024, published 2025).
Values belong to the molecule of their own block, whether it stands above or below them.

Legend:
[1] = tested on: E. rectale DSM 17629; assay: E. rectale in vitro culture with sulfapyridine (but expression); type: cell-based, Eubacterium rectale; settings: SP 1 mM
Method: (§1) CFU from F. prausnitzii cultures were assessed anaerobically in YCFA agar. Growth was measured by absorbance, OD600, on SpectraMax Plus (Molecular Devices, San Jose, CA). RNA isolation was performed using RNeasy PowerMicrobiome kit (Qiagen, Hilden, Germany) following the manufacture instructions. RNA was then quantified by Nanodrop prior to reverse transcription with qScript cDNA SuperMix kit (Quantabio, Beverly, MA) or RNAseq library preparation.
(§2) qPCR was performed on an Applied BioSciences Quant Studio 6 Flex Real-time PCR (Applied Biosystems, Waltham, MA) using PerfeCTa SYBR Green Fast mix, Low ROX (Quantabio, Beverly, MA). The following primers were used: for 16S rRNA gene −515F 5′ […] 3′ (SEQ ID NO:1), −926R 5′ […] 3′ (SEQ ID NO:2)^71 F. prausnitzii but gene F: 5′ […] 3′ SEQ ID NO:3), R: 5′ […] 3′ (SEQ ID NO:4) and E. rectale but gene F: 5′ […] 3′, SEQ ID NO:5) R: 5′ […] 3′ (SEQ ID NO:6) (designed on the PrimerQuest Tool from IDT, Coralville, IA). The thermocycler program was as follows: initial cycle of 95° C. for 60 s, followed by 40 PCR cycles at 95° C. for 5 s, 60° C. for 15 s, 72° C. for 15 s. Relative levels of the but target gene was determined by calculating the Δ Ct to the conserved 16S rRNA gene expression.

[2] = tested on: F. prausnitzii ATCC 27768; assay: F. prausnitzii in vitro culture with sulfapyridine (growth, RNA-seq, qPCR, mass spectrometry); type: cell-based, Faecalibacterium prausnitzii
Method: (§3) To determine drug fecal levels and its impact on fecal metabolites, fecal samples were treated with cold 80% methanol for 4 hours at 4° C. Samples were then centrifuged at 14,000 g for 20 min at 4° C. Supernatants were transferred to a sterile 1.5 ml tube and stored at-80° C. Bacterial supernatants were treated with 4X volume of the 80% methanol. Polar metabolomic analysis was performed by the WCM Proteomics and Metabolomics Core for target polar metabolomics analysis by LC-MS. Metabolites were identified using an in-house library established using chemical standards. Identification required exact mass (within 5ppm) and standard retention times. To determine short chain fatty acids (SCFAs) fecal levels, target metabolomics were performed using liquid chromatography-quadruple-time of flight mass spectrometry as previously described^62. Relative metabolite quantitation was performed based on peak area for each metabolite evaluated and normalized by sample weight.
as §1
RNA-seq library preparation and sequencing were performed by WCM Genomics Core. For library preparation, the Illumina Stranded Total RNA Prep kit was used. High-throughput sequencing was performed using the PE 2×50 cycles protocol in the NovaSeq 6000 Illumina platform targeting 10 million reads/sample. Bioinformatics and statistical analysis were then performed by the WCM Bioinformatics Core. Samples were aligned with STAR^67 to NCBI reference genome GCF_000154385.1 (F. prausnitzii M21/2). Quality control was performed with QoRTs^68 on aligned BAM files. Counts per gene were then calculated using featureCounts^69. BioCyc^70 analyses were performed with clusterProfiler to identify pathways/gene sets that are overrepresented among the differentially expressed genes.
as §2

[3] = tested on: Jackson SPF or germ-free C57BL/6 WT mice; assay: Fecal short chain fatty acids and 5-ASA in SPF or germ-free mice treated with SAS or BSD; type: in vivo, mouse
Method: (§4) Gnotobiotic C57BL/6 wild-type (WT) mice were bred and maintained at WCM Gnotobiotic Mouse facility. Specific pathogen free (SPF) C57BL/6 WT mice were ordered from Jackson Laboratory. C57BL/6 Gpr109a^−/− mice were obtained from Marcel van den Brink laboratory and were bred and maintained under SPF conditions at WCM.
(§5) For induction of chemical colitis, 2% dextran sulfate sodium (DSS) (wt/vol) (M.W. 40,000-50,000; Affymetrix, Santa Clara, CA) was added to drinking water and administered ad libitum for 7 days. Mice were then monitored daily for weight loss and survival. Mouse Lipocalin-2 was measured in the cecal content supernatant using sandwich enzyme-linked immunosorbent assay (R&D Systems, Minneapolis, MN).
as §3

[4] = tested on: butyrate receptor Gpr109a; assay: DSS-induced colitis in Gpr109a-deficient and heterozygous mice; type: in vivo, mouse
Method: as §4, §5
(§6) All animal experiments were performed with 6-8-week-old WT, Gpr109a^−/− and heterozygous littermate mice. Both female and male mice were used with random and equal assignment of same sex to each experimental group. All animal studies were carried out in accordance with protocols approved by the Institutional Animal Care and Use Committee at WCM.

[5] = tested on: DSS-induced colitis; assay: DSS-induced colitis in SPF WT mice; type: in vivo, mouse; settings: 2% DSS 7 days, SAS 300 mg/kg/day
Method: as §4, §5, §6

[6] = tested on: fecal samples of IBD-pSpA subjects; assay: Fecal metabolomics of IBD-pSpA subjects treated with SAS; type: in vivo, human; settings: responders
Method: as §3

[7] = tested on: patients with a clinical diagnosis of IBD and ASAS-defined SpA; assay: Prospective clinical study of SAS therapy in IBD-pSpA subjects (BASDAI, ASDAS, HBI, CRP); type: in vivo, human; parameters: proportion of treated patients who tolerated increase: dose or concentration left out as unconfirmed
Text: Eligible patients of any gender were between the ages of 18-80 with ulcerative colitis (UC) or Crohn's disease (CD) and ASAS criteria of pSpA defined as the presence of peripheral arthritis, enthesitis or dactylitis^50. Patients with active SpA, defined as ASDAS>1.3 and/or BASDAI≥4, were eligible to participate^51, 52. […] Participants who declined therapy or were intolerant of SAS were followed as standard of care controls. […] All patients provided voluntary informed consent and the study ethics was approved by the Weill Cornell institutional review board (IRB 1504016115).
The primary endpoint of our analysis was clinical response in BASDAI, defined conservatively as a reduction in BASDAI of >2. Secondary endpoints were clinical response in ASDAS and Harvey Bradshaw Index (HBI) for CD defined as reduction in ASDAS of ≥1.1 at week 12 post-study initiation^51 or a decrease in HBI of ≥3^54, respectively. Exploratory analysis included absolute reduction in BASDAI, ASDAS, CRP, and HBI.
To determine significance of […] variables, Student's t test was applied if two groups were compared, otherwise two-way ANOVA test was used. For non-parametric data, Wilcoxon matched-pairs signed-rank test was calculated when paired analyses were carried, otherwise Mann-Whitney test was applied. If required, Bonferroni or Tukey tests were applied for multiple comparison correction. Metagenomic and transcriptomic analyses were performed in R studio (Boston, MA) using R package ‘phyloseq’^66 and plots were constructed in ‘ggplot2’ or GraphPad (San Diego, CA). Differential gene expression analysis was performed with DESeq2^72. Differential taxa or pathway abundance was assessed using linear discriminant analysis (LDA) effect size (LEfSe)^31. Correlation between two continuous variables (e.g. fecal drug levels, Δ BASDAI, alpha diversity) was determined with linear regression models. For discriminating responders from non-responders, we fit linear regression models on the relative abundances of select taxa and constructed corresponding ROC curves. Area under the curve (AUC) and P values were computed using R.

[8] = tested on: gnotobiotic mice colonized with IBD-pSpA donor microbiomes; assay: Gnotobiotic mice colonized with responder or non-responder microbiomes: fecal butyrate and DSS colitis; type: in vivo, mouse
Method: as §4, §5
For gnotobiotic experiments, germ-free (GF) mice were gavaged with 1 g of homogenized patient fecal samples diluted in 10 ml of reduced PBS under anaerobic conditions, as previously described^53. Mice gavaged with ATCC 27768 F. prausnitzii received 1×10^9 colony forming units (CFU) grown under anaerobic conditions at log-phase in Yeast Casitone Fatty Acids Broth with Carbohydrate media (YCFAC, Anaerobe Systems, Morgan Hill, CA).
as §3

[9] = RNA-seq, SP 1 mM vs NaOH vehicle
[10] = SPF WT mice, 300 mg/kg/day, day 14

acetate kinase (ackA) expression [2, 9]: downregulation | phosphate acetyltransferase (pta) expression [2, 9]: downregulation | thymidine kinase expression ([2]; bacterial cultures with SP): significant increase
Compound: Nc1ccc(S(=O)(=O)Nc2ccccn2)cc1 [SP, sulfapyridine]
expression of but in E. rectale [1]: did not change | effect of dose on F. prausnitzii growth ([2]; 1 mM, anaerobic culture): sub-inhibitory | folT (folate ECF transporter S component FolT) expression ([2]; RNA-seq, SP 1 mM): upregulation | but expression [2, 9]: concomitant increase | thymine metabolites ([2]; bacterial cultures with SP): corresponding decrease | butyrate production ([2]; mass spectrometry after 22 and 46 hours of culture, both timepoints): robustly increased | induction of but in response to SP on supplementation with folate ([2]; qPCR, SP plus folate 566 μM): abrogated

conversion of prodrug by the mouse gut microbiome (5-ASA detection in fecal samples) ([3]; SPF mice, day 7 post-treatment initiation): efficiently converted
Compound: O=C(O)CCNC(=O)c1ccc(/N=N/c2ccc(O)c(C(=O)O)c2)cc1 [BSD, balsalazide]
fecal butyrate levels compared to H2O vehicle controls [3, 10]: numerically higher

Compound: O=C(O)c1cc(/N=N/c2ccc(S(=O)(=O)Nc3ccccn3)cc2)ccc1O [SAS, sulfasalazine]
fecal butyrate levels post-treatment ([3]; GF mice): no changes | fecal acetate [3, 10]: no significant change | fecal butyrate levels compared to H2O vehicle controls [3, 10]: significant increase | fecal propionate [3, 10]: no significant change | inflammation measured by lipocalin ([4]; mice deficient for Gpr109a): no effect | survival ([4]; mice deficient for Gpr109a): no effect | weight loss ([4]; mice deficient for Gpr109a): no effect | intestinal inflammation measured by cecal lipocalin ([4]; mice heterozygous for Gpr109a): decreased intestinal inflammation | survival ([4]; mice heterozygous for Gpr109a): significantly improved | weight loss ([4]; mice heterozygous for Gpr109a): reduced weight loss | cecal lipocalin compared to control treated mice [5]: reduced | mortality compared to control treated mice [5]: significantly reduced | weight loss compared to control treated mice [5]: attenuated | thymine fecal abundance after SAS treatment ([6]; P=.016): significantly reduced | fecal deoxyuridine levels after SAS treatment ([6]; P=.05): concomitant increase | proportion of treated patients who tolerated increase ([7]; 22 patients treated with SAS, n=11): 50% | absolute score reduction in BASDAI compared to controls ([7]; baseline to week 12): significant absolute score reduction | difference in CRP alone compared to controls ([7]; baseline to week 12): no difference | reduction in all joint disease activity scores, 2 mg versus 4 mg daily ([7]; comparison between SAS doses): equivalent reduction | impact of baseline biologic or mesalamine therapy on change in disease activity scores following SAS treatment ([7]; human, in vivo): did not impact | proportion with clinical improvement using ASDAS ([7]; week 12, controls 0%, P=.07): 28.6% | proportion of patients achieving clinical response in joint symptoms (reduction in BASDAI of >2) ([7]; week 12, controls 9.1%, P=.04): 45.4% | abundance of fecal butyrate following SAS treatment ([8]; mice colonized with non-responder microbiome): not changed | abundance of fecal butyrate following SAS treatment ([8]; mice colonized with responder microbiomes): higher abundance | weight loss ([8]; non-responder microbiomes, DSS): not responsive | intestinal inflammation measured by lipocalin ([8]; responder microbiomes, DSS): reduced | weight loss ([8]; responder microbiomes, DSS): reduced
